Results published in patent publication US20140357579A1, “SYNTHETIC PEPTIDE AMIDES AND DIMERS THEREOF” (priority 2006, published 2014).
pEC50: −log10 of the molar value. Like-named read-outs stand apart in the source and are kept apart here. Bridge positions count the residues as written; N and C are the ends. Square brackets hold non-standard residues; d marks the D form. Side chains are listed from the residue outwards. Peptide text beside a SMILES is read from it. I, II: the chains in the order shown. dAgb = N=C(N)NCC[C@@H](N)C(=O)O; dAgp = N=C(N)NC[C@@H](N)C(=O)O; dNle = CCCC[C@@H](N)C(=O)O; dOrn = NCCC[C@@H](N)C(=O)O; Api = NC1(C(=O)O)CCNCC1; Inp = O=C(O)C1CCNCC1

Assays:
[1] = target: T1, mouse kappa opioid receptor (mKOR) (Mus musculus, UniProt P33534); test: Inhibition of forskolin-stimulated cAMP production in R1.G1 cells (TR-FRET cAMP immunoassay); type: cell-based; conditions: for pEC50 / EC50: inhibition of forskolin-stimulated cAMP; for pEC50: read-out: mKOR EC50; for EC50: mKOR EC50 (nM)
T1 construct: a mouse thymoma cell line that expresses only the kappa-opioid receptor and no other opioid receptor subtype; host or cells: R1.G1 mouse thymoma cells

[2] = target: T2, human kappa opioid receptor (hKOR) (Homo sapiens, UniProt P41145); test: NFAT-luciferase reporter assay in HEK-293 cells transfected with human kappa opioid receptor and chimeric G-protein; type: cell-based; conditions: for hKOR Efficacy(%) / Emax: percent maximal activation compared to full induction by known kappa agonists; for pEC50: transfected HEK-293 cells, luciferase reporter, read-out: hKOR EC50; for Emax: HEK293, read-out: hKOR Efficacy(%)
T2 construct: expressed in transfected cells; host or cells: HEK-293 cells (ATCC), transient transfection with pcDNA3-hOPRK1

[3] = R1.G1 cells, read-out: mKOR Efficacy(%)
[4] = read-out: mKOR Efficacy(%), R1.G1 cells

T1 sequence (P33534 whole entry): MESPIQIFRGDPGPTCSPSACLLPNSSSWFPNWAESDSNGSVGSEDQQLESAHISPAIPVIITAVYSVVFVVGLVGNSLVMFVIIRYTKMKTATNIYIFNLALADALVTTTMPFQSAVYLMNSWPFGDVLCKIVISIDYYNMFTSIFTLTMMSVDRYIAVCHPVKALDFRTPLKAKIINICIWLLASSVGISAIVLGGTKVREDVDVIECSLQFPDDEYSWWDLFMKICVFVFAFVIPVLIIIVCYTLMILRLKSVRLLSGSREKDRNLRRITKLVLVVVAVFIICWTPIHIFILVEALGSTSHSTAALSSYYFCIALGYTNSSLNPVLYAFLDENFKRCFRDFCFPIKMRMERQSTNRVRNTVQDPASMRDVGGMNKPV
T2 sequence (P41145 whole entry): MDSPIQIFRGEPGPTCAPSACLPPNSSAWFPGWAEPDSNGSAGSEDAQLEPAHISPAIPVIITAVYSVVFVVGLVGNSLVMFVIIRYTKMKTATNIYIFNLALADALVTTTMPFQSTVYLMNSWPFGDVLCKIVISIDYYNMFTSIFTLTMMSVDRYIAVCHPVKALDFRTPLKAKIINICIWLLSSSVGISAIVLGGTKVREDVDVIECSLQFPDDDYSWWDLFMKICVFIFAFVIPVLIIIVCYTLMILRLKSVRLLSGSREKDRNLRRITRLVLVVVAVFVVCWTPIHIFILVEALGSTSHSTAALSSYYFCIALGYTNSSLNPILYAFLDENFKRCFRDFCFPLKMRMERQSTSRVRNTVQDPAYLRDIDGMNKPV

## CC(C)C[C@@H](NC(=O)[C@@H](Cc1ccccc1)NC(=O)[C@H](N)Cc1ccccc1)C(=O)N[C@H](CCCN)C(=O)NCCN1CCN(CC(=O)O)CC1 [Compound 1, D-Phe-D-Phe-D-Leu-D-Orn-[4-(2-aminoethyl)-1-carboxymethyl-piperazine]-OH]
[1]; R1.G1 cells
  mKOR Efficacy(%): 98%
[2]
  hKOR Efficacy(%): 102%
  pEC50: 9.31

## CC(C)C[C@@H](NC(=O)[C@@H](Cc1ccccc1)NC(=O)[C@H](N)Cc1ccccc1)C(=O)N[C@H](CCCN)C(=O)N1CCC(CC(=O)O)CC1 [Compound 2, D-Phe-D-Phe-D-Leu-D-Orn-[4-Carboxymethyl-piperidine]-OH]
[1]; R1.G1 cells
  mKOR Efficacy(%): 97%
[2]
  hKOR Efficacy(%): 99%
  pEC50: 9.89

## CCCC[C@@H](NC(=O)[C@@H](Cc1ccccc1)NC(=O)[C@H](N)Cc1ccccc1)C(=O)N[C@H](CCCNC(=N)N)C(=O)N1CCC[C@@H]1C(=O)O [Compound 3, D-Phe-D-Phe-D-Nle-D-Arg-D-Pro-OH] (H-[dF][dF][dNle][dR][dP]-OH; N-terminus assumed)
[1]; R1.G1 cells
  mKOR Efficacy(%): 88%

## CC(C)C[C@@H](NC(=O)[C@@H](Cc1ccccc1)NC(=O)[C@H](N)Cc1ccccc1)C(=O)N[C@H](CCCN)C(=O)N[C@@H]1CN[C@H](C(=O)O)C1 [Compound 5, D-Phe-D-Phe-D-Leu-D-Orn-[(2S,4S)-4-Amino-pyrrolidine-2-carboxylic acid]-OH]
[1]; R1.G1 cells
  mKOR Efficacy(%): 96%

## CC(C)C[C@@H](NC(=O)[C@@H](Cc1ccccc1)NC(=O)[C@H](N)Cc1ccccc1)C(=O)N[C@H](CCCN)C(=O)N1CCC(N)(C(=O)O)CC1 [Compound 6, D-Phe-D-Phe-D-Leu-D-Orn-[omega(4-Aminopiperidine-4-carboxylic acid)]-OH]
[1]; R1.G1 cells
  mKOR Efficacy(%): 100%
[2]
  hKOR Efficacy(%): 107%
  pEC50: 9.77

## CC(C)C[C@@H](NC(=O)[C@@H](Cc1ccccc1)NC(=O)[C@H](N)Cc1ccccc1)C(=O)N[C@H](CCCN)C(=O)N1CCC(CC(N)C(=O)O)CC1 (stereo partly drawn) [Compound 7, D-Phe-D-Phe-D-Leu-D-Orn-[ω(D/L-2-Amino-3-(4-N-piperidinyl)propionic acid)]-OH]
[1]; R1.G1 cells
  mKOR Efficacy(%): 102%
[2]
  hKOR Efficacy(%): 104%
  pEC50: 9.85

## CC(C)C[C@@H](NC(=O)[C@@H](Cc1ccccc1)NC(=O)[C@H](N)Cc1ccccc1)C(=O)N[C@H](CCCN)C(=O)N1CCNC(C(=O)O)C1 (stereo partly drawn) [Compound 8, D-Phe-D-Phe-D-Leu-D-Orn-[omega(D/L-piperazine-2-carboxylic acid)]-OH]
[1]; R1.G1 cells
  mKOR Efficacy(%): 102%
[2]
  hKOR Efficacy(%): 93%
  pEC50: 9.80

## CC(C)C[C@@H](NC(=O)[C@@H](Cc1ccccc1)NC(=O)[C@H](N)Cc1ccccc1)C(=O)N[C@H](CCCN)C(=O)N1CCC(C(=O)O)CC1 [Compound 9, D-Phe-D-Phe-D-Leu-D-Orn-[Isonipecotic acid]-OH] (H-[dF][dF][dL][dOrn][Inp]-OH; N-terminus assumed)
[1]; R1.G1 cells
  mKOR Efficacy(%): 92%
[2]
  Emax: 134%
  pEC50: 9.41

## CC(C)C[C@@H](NC(=O)[C@@H](Cc1ccccc1)NC(=O)[C@H](N)Cc1ccccc1)C(=O)N[C@H](CCCN)C(=O)N1CCC(N2CCC[C@H]2C(=O)O)CC1 [Compound 10, D-Phe-D-Phe-D-Leu-D-Orn-[N-(4-piperidinyl)-L-proline]-OH]
[1]; R1.G1 cells
  mKOR Efficacy(%): 99%
[2]
  hKOR Efficacy(%): 92%
  pEC50: 9.92

## CC(C)C[C@@H](NC(=O)[C@@H](Cc1ccccc1)NC(=O)[C@H](N)Cc1ccccc1)C(=O)N[C@H](CCCN)C(=O)N1CCCNCC1 [Compound 11, D-Phe-D-Phe-D-Leu-D-Orn-[homopiperazine amide]]
[1]; R1.G1 cells
  mKOR Efficacy(%): 100%
[2]
  Emax: 90%
  pEC50: 9.92

## CC(C)C[C@@H](NC(=O)[C@@H](Cc1ccccc1)NC(=O)[C@H](N)Cc1ccccc1)C(=O)N[C@H](CCCN)C(=O)N1CCC(CCCC(=O)O)CC1 [Compound 12, D-Phe-D-Phe-D-Leu-D-Orn-[4-(4-piperidinyl)-butanoic acid]-OH]
[1]; R1.G1 cells
  mKOR Efficacy(%): 100%
[2]
  Emax: 99%
  pEC50: 9.52

## CC(C)C[C@@H](NC(=O)[C@@H](Cc1ccccc1)NC(=O)[C@H](N)Cc1ccccc1)C(=O)N[C@H](CCCN)C(=O)NCCN1CCN(CC(N)=O)CC1 [Compound 13, D-Phe-D-Phe-D-Leu-D-Orn-[4-(2-aminoethyl)-1-carboxymethyl-piperazine]-NH2]
[1]; R1.G1 cells
  mKOR Efficacy(%): 96%
[2]
  hKOR Efficacy(%): 96%

## CC(C)C[C@@H](NC(=O)[C@@H](Cc1ccccc1)NC(=O)[C@H](N)Cc1ccccc1)C(=O)N[C@H](CCCN)C(=O)N1CCC(N2CCC[C@H]2C(N)=O)CC1 [Compound 14, D-Phe-D-Phe-D-Leu-D-Orn-[N-(4-piperidinyl)-L-proline]-NH2]
[1]; R1.G1 cells
  mKOR Efficacy(%): 96%
[2]
  Emax: 105%
  pEC50: 9.68

## CC(C)C[C@@H](NC(=O)[C@@H](Cc1ccccc1)NC(=O)[C@H](N)Cc1ccccc1)C(=O)N[C@H](CCCN)C(=O)NC1CCN(CC(N)=O)CC1 [Compound 15, D-Phe-D-Phe-D-Leu-D-Orn-[4-Amino-1-carboxymethyl-piperidine]-NH2]
[1]; R1.G1 cells
  mKOR Efficacy(%): 93%

## CC(C)C[C@@H](NC(=O)[C@@H](Cc1ccccc1)NC(=O)[C@H](N)Cc1ccccc1)C(=O)N[C@H](CCCN)C(=O)N1CCCN(C(=N)N)CC1 [Compound 16, D-Phe-D-Phe-D-Leu-D-Orn-[4-Amidinohomopiperazine amide]]
[1]; [3]
  Emax: 99%
[2]
  Emax: 90%
  pEC50: 9.92

## CNCCC[C@@H](NC(=O)[C@@H](CC(C)C)NC(=O)[C@@H](Cc1ccccc1)NC(=O)[C@H](N)Cc1ccccc1)C(=O)N1CCCN(C(=N)N)CC1 [Compound 21, D-Phe-D-Phe-D-Leu-(δ-Me)D-Orn-[4-Amidinohomopiperazine amide]]
[1]; R1.G1 cells
  mKOR Efficacy(%): 97%

## CC(C)C[C@@H](NC(=O)[C@@H](Cc1ccccc1)NC(=O)[C@H](N)Cc1ccccc1)C(=O)N[C@H](CCCNC(C)C)C(=O)N1CCCN(C(=N)N)CC1 [Compound 22, D-Phe-D-Phe-D-Leu-(δ-iPr)D-Orn-[4-Amidinohomopiperazine amide]]
[1]; R1.G1 cells
  mKOR Efficacy(%): 97%

## CNCCC[C@@H](NC(=O)[C@@H](CC(C)C)NC(=O)[C@@H](Cc1ccccc1)NC(=O)[C@H](N)Cc1ccccc1)C(=O)N1CCCNCC1 [Compound 23, D-Phe-D-Phe-D-Leu-(-Me)D-Orn-[homopiperazine amide]]
[1]; R1.G1 cells
  mKOR Efficacy(%): 95%

## CC(C)C[C@@H](NC(=O)[C@@H](Cc1ccccc1)NC(=O)[C@H](N)Cc1ccccc1)C(=O)N[C@H](CCCNC(C)C)C(=O)N1CCCNCC1 [Compound 24, D-Phe-D-Phe-D-Leu-(6-iPr)D-Orn-[homopiperazine amide]]
[1]; R1.G1 cells
  mKOR Efficacy(%): 96%

## CC(C)C[C@@H](N)C(=O)N[C@H](CCCN)C(=O)N[C@@H](CCCCNC(=O)[C@@H](CCCN)NC(=O)[C@@H](CC(C)C)NC(=O)[C@@H](Cc1ccccc1)NC(=O)[C@H](N)Cc1ccccc1)C(=O)O [Compound 39, D-Phe-D-Phe-D-Leu-D-Orn-[eLys(D-Orn-D-Leu-H)]-OH]
[1]; R1.G1 cells
  pEC50: 7.17
[1]; [3]
  Emax: 35%

## CC(C)C[C@@H](N)C(=O)N[C@H](CCCN)C(=O)N[C@H](CCCCNC(=O)[C@@H](CCCN)NC(=O)[C@@H](CC(C)C)NC(=O)[C@@H](Cc1ccccc1)NC(=O)[C@H](N)Cc1ccccc1)C(=O)O [Compound 46]
[1]; R1.G1 cells
  pEC50: 9.92
[1]; [3]
  Emax: 95%

## CC(C)C[C@@H](NC(=O)[C@H](N)Cc1ccccc1)C(=O)N[C@H](CCCN)C(=O)N[C@H](CCCCNC(=O)[C@@H](CCCN)NC(=O)[C@@H](CC(C)C)NC(=O)[C@@H](Cc1ccccc1)NC(=O)[C@H](N)Cc1ccccc1)C(=O)O [Compound 47]
[1]; R1.G1 cells
  EC50: 0.05 nM
[1]; [4]
  Emax: 91%

## CC(C)C[C@@H](NC(=O)[C@@H](Cc1ccccc1)NC(=O)[C@H](N)Cc1ccccc1)C(=O)N[C@H](CCCN)C(=O)NCCCC[C@@H](NC(=O)[C@@H](CCCN)NC(=O)[C@@H](CC(C)C)NC(=O)[C@@H](Cc1ccccc1)NC(=O)[C@H](N)Cc1ccccc1)C(=O)O [Compound 48] (H-[dF][dF][dL][dOrn][dK]([dOrn-dL-dF-dF])-OH)
[1]; R1.G1 cells
  EC50: 0.34 nM
[1]; [4]
  Emax: 85%

## CC(C)C[C@@H](NC(=O)[C@@H](Cc1ccccc1)NC(=O)[C@H](N)Cc1ccccc1)C(=O)N[C@H](CCCNC(C)C)C(=O)NC1(C(=O)O)CCN(C(=O)[C@@H](CCCNC(C)C)NC(=O)[C@@H](CC(C)C)NC(=O)[C@@H](Cc2ccccc2)NC(=O)[C@H](N)Cc2ccccc2)CC1 [Compound 49]
[1]; [4]
  Emax: 50%

## CC(C)C[C@@H](NC(=O)[C@@H](Cc1ccccc1)NC(=O)[C@H](N)Cc1ccccc1)C(=O)N[C@H](CNC(=N)N)C(=O)NC1(C(=O)O)CCN(C(=O)[C@@H](CNC(=N)N)NC(=O)[C@@H](CC(C)C)NC(=O)[C@@H](Cc2ccccc2)NC(=O)[C@H](N)Cc2ccccc2)CC1 [Compound 50] (H-[dF][dF][dL][dAgp][Api]([dAgp-dL-dF-dF])-OH)
[1]; R1.G1 cells
  EC50: 56.7 nM
[1]; [4]
  Emax: 77%

## CC(C)C[C@@H](NC(=O)[C@@H](Cc1ccccc1)NC(=O)[C@H](N)Cc1ccccc1)C(=O)N[C@H](CCNC(=N)N)C(=O)NC1(C(=O)O)CCN(C(=O)[C@@H](CCNC(=N)N)NC(=O)[C@@H](CC(C)C)NC(=O)[C@@H](Cc2ccccc2)NC(=O)[C@H](N)Cc2ccccc2)CC1 [Compound 51, 1N,4N-bis-(D-Phe-D-Phe-D-Leu-D-Nar)-4amino-4carboxylic piperidine] (H-[dF][dF][dL][dAgb][Api]([dAgb-dL-dF-dF])-OH)
[1]; R1.G1 cells
  EC50: 95.8 nM
[1]; [4]
  Emax: 60%

## CC(C)C[C@@H](NC(=O)[C@@H](Cc1ccccc1)NC(=O)[C@H](N)Cc1ccccc1)C(=O)N[C@@H]1CCCCNC(=O)CNC(=O)[C@H](NC(=O)[C@@H](CC(C)C)NC(=O)[C@@H](Cc2ccccc2)NC(=O)[C@H](N)Cc2ccccc2)CCCCNC(=O)CNC1=O [Compound 52, D-Phe-D-Phe-D-Leu-(D-Lys-GlyLactam)2-D-Leu-D-Phe-D-Phe] (I: H-[dF][dF][dL][dK]G / II: H-[dF][dF][dL][dK]G; amide I:4-II:C, I:C-II:4 (inferred); N-terminus assumed)
[1]; [4]
  Emax: 76%
